Results as given in patent US7419780B2, “Methods and assays for screening protein targets” (The Trustees of Columbia University in the City of New York, priority 2000, dated 2008).

Tested on: S. cerevisiae strain FY250

## C[C@@H]1C[C@H]2[C@@H]3CCC4=CC(=O)C=C[C@]4(C)[C@@]3(F)[C@@H](O)C[C@]2(C)[C@@]1(O)C(=O)CO [DEX, Dexamethasone]
  toxicity (impaired cell growth on plate): neither DEX nor GR are toxic
